Square brackets hold non-standard residues; d marks the D form. Peptide text beside a SMILES is read from it. Hyp = O=C(O)[C@@H]1C[C@@H](O)CN1
Columns and labels:
[1] = tested on: rats with dry eye syndrome (extraorbital lacrimal gland excision, ELGE); assay: Amount of tear secretion (Schirmer test, cobalt chloride paper) in ELGE rats with dry eye syndrome; format: in vivo, rat; conditions: for Tear Volumes, Day 7 / Tear Volumes, Day 14: ELGE rats, 3 mg/ml, 5 μl/eye twice daily; for Tear Volumes, Day 7: day 7 of administration; for Tear Volumes, Day 14: day 14 of administration; for Change in amount of tear secretion as compared with the ELGE control group: 3% solution as printed, after administration for 14 days
From the text: (§1) In order to evaluate the eye protection effect on dry eye syndrome by YDE-001 to YDE-028 prepared in Example 1, a total of 320 Sprague-Dawley-type male rats (OrientBio, Seungnam, Korea) were adapted for 7 days. Thereafter, dry eye syndrome was induced in 264 test rats through extraorbital lacrimal gland excision (hereinafter, ELGE). 8 test rats without the eye abnormality were subjected to a sham operation as a control group.
(§2) The rat was systemically anesthetized by inhaling a mixed gas of 2% to 3% of isoflurane (Hana Pharm. Co., Hwasung, Korea), 70% of N2O, and 28.6% of O2 using a rodent anesthesia machine (Surgivet, Waukesha, Wis., USA) and a ventilator (Model 687, Harvard Apparatus, Cambridge, UK). Thereafter, the extraorbital lacrimal gland located in the subdermal area above the masseter muscle and […] was excised through a transverse incision in a size of 10 mm on the anterior part of the left ear tragus. The skin was sutured by a general method. […] After 6 days from the ELGE operation, it was checked through the Schirmer test by measuring the amount of tear secretion whether dry eye syndrome had been induced. Meanwhile, each rat of the control group with the sham operation was checked for the presence and location of the extraorbital lacrimal gland through a skin incision, and the skin was then sutured without the excision thereof (FIG. 4).
(§3) In addition, in order to evaluate the eye protection effect on dry eye syndrome by YDE-029 to YDE-043 prepared in Example 1, a total of 200 Sprague-Dawley-type male rats (OrientBio, Seungnam, Korea) were adapted for 7 days. Dry eye syndrome was induced in 165 test rats through the ELGE. 8 test rats without the eye abnormality were subjected to the sham operation as a control group. The ELGE was carried out as described above.
(§4) For YDE-001 to YDE-028, YY-102 and the 28 YDE-series were each dissolved in physiological saline at a concentration of 3 mg/ml and administered at a dose of 5 μl/eye at 9:30 am and 3:30 pm daily for 14 days after 7 days from the ELGE operation for a total of 28 times. The DS solution was dissolved in physiological saline at a concentration of 30 mg/ml and administered at a dose of […] twice a day for 14 days after 7 days from the ELGE operation for a total of 28 times. For the sham control and the ELGE control groups, the same stimulation as the administration was applied. In order to prevent excessive eye dryness, the same volume of physiological saline was applied in the same manner in place of the test substances.
as §4, with “Further, for YDE-029 to YDE-043,” for “For YDE-001 to YDE-028,”, “YDE-029 to YDE-043, YY-102 and” for “YDE-001 to YDE-028, YY-102 and”, “and the 15 YDE-series were” for “and the 28 YDE-series were”, “the test substances (FIG. 7).” for “the test substances.”
After 6 days from the ELGE surgery, the changes in the amount of tear secretion were measured at day 7 and day 14 after the administration of YDE-001 to YDE-043. The amount of tear secretion was measured by the […] travel distance of tears absorbed by cobalt chloride paper in a size of 1×15 mm (Toyo Roshi Kaisha, Japan).
The cobalt chloride paper was placed in the lateral canthus of a rat for 60 seconds to absorb tears (FIG. 9). The length of the area absorbed from the corner of the cobalt chloride paper was measured with an electronic digital caliper (Mytutoyo, Tokyo, Japan) (FIG. 8).

[2] = tested on: cornea of rats with dry eye syndrome (ELGE); assay: Corneal permeability of fluorescent dye (corneal damage) in ELGE rats with dry eye syndrome; format: in vivo, rat; conditions: 5 μl/eye twice daily, day 14
From the text: as §1, §2, §3, §4
as §4, with “Further, for YDE-029 to YDE-043,” for “For YDE-001 to YDE-028,”, “YDE-029 to YDE-043, YY-102 and” for “YDE-001 to YDE-028, YY-102 and”, “and the 15 YDE-series were” for “and the 28 YDE-series were”, “the test substances (FIG. 7).” for “the test substances.”
After YDE-001 to YDE-028 were each administered to the eyes […], the changes in the corneal permeability were checked.
In order to measure the corneal permeability, Zolethyl 50™ (Virbac Lab., Carros, France), an animal anesthetic, was intraperitoneally injected at a dose of 25 mg/kg. Thereafter, saline containing a 1% (v/v) fluorescent solution (fluorescein sodium salt, Tokyo Kasei Kogyo Co., Tokyo, Japan) was applied to the eyes at a dose of 5 μl/eye. The eyes thus treated were closed and fixed with a tape. After 1 hour, the remaining fluorescent solution was removed using a cotton swab (FIG. 12). […]

[3] = Stability in aqueous solution under long-term storage conditions (related substances); format: physicochemical; conditions: 25° C., 75% RH
Description: In order to confirm the stability of each test substance in an aqueous solution, […] of each sample was dissolved in 1 ml of water to a concentration of 1 mg/ml, which was then charged to a glass vial, plugged with a rubber cap, sealed with an aluminum cap, and stored under long-term storage conditions (25° C., 75% RH). The stability of the test substance was evaluated by measuring the amount of related substances at the time of one week, two weeks, four weeks, eight weeks, and twelve weeks under the long-term storage conditions.

[4] = Table 4, study of YDE-001 to YDE-028
[5] = Table 6, study of YDE-001 to YDE-028, 3 mg/ml
[6] = Table 5, study of YDE-029 to YDE-043
[7] = Table 7, study of YDE-029 to YDE-043, 3 mg/ml

## CNC(=O)C[C@H](NC(=O)[C@H](CCC(N)=O)NC(=O)CNC(=O)[C@@H]1C[C@@H](O)CN1)C(=O)NCC(=O)N[C@@H](CC(C)C)C(=O)N[C@@H](C)C(=O)NCC(=O)N1CCC[C@H]1C(=O)N[C@@H](CCCCN)C(=O)O [YDE-028] (H-[Hyp]GQD(NHMe)GLAGPK-OH)
[1]; [4]
  Tear Volumes, Day 7: 4.04 ± 0.99 mm^3
  Tear Volumes, Day 14: 4.73 ± 1.18 mm^3
[1]; study of YDE-001 to YDE-028
  Change in amount of tear secretion as compared with the ELGE control group: did not show any significant changes
[2]; [5]
  Permeability of fluorescent dye: 41.17 ± 10.25%
[3]
  Amount of related substances (after 12 weeks): 1.15%

## CC(C)C[C@H](NC(=O)[C@@H](NC(=O)[C@H](CC(=O)O)NC(=O)[C@H](CCC(N)=O)NC(=O)CNC(=O)[C@@H]1C[C@@H](O)CN1)C(C)C)C(=O)N[C@@H](C)C(=O)NCC(=O)N1CCC[C@H]1C(=O)N[C@@H](CCCCN)C(=O)O [YDE-015] (H-[Hyp]GQDVLAGPK-OH)
[1]; [4]
  Tear Volumes, Day 7: 4.03 ± 2.19 mm^3
  Tear Volumes, Day 14: 6.65 ± 2.13 mm^3
[2]; [5]
  Permeability of fluorescent dye: 15.95 ± 6.48%
[3]
  Amount of related substances (after 12 weeks): 13.05%

## CC(C)C[C@H](NC(=O)CNC(=O)[C@@H](NC(=O)[C@H](CCC(N)=O)NC(=O)CNC(=O)[C@@H]1C[C@@H](O)CN1)C(C)C)C(=O)N[C@@H](C)C(=O)NCC(=O)N1CCC[C@H]1C(=O)N[C@@H](CCCCN)C(=O)O [YDE-009] (H-[Hyp]GQVGLAGPK-OH)
[1]; [4]
  Tear Volumes, Day 7: 3.76 ± 1.21 mm^3
  Tear Volumes, Day 14: 4.54 ± 1.11 mm^3
[1]; study of YDE-001 to YDE-028
  Change in amount of tear secretion as compared with the ELGE control group: did not show any significant changes
[2]; [5]
  Permeability of fluorescent dye: 41.50 ± 7.86%
[3]
  Amount of related substances (after 12 weeks): 4.71%

## CC(C)C[C@H](NC(=O)CNC(=O)[C@H](C)NC(=O)[C@H](CCC(N)=O)NC(=O)CNC(=O)[C@@H]1C[C@@H](O)CN1)C(=O)N[C@@H](C)C(=O)NCC(=O)N1CCC[C@H]1C(=O)N[C@@H](CCCCN)C(=O)O [YDE-008] (H-[Hyp]GQAGLAGPK-OH)
[1]; [4]
  Tear Volumes, Day 7: 4.57 ± 1.25 mm^3
  Tear Volumes, Day 14: 6.10 ± 2.36 mm^3
[2]; [5]
  Permeability of fluorescent dye: 20.32 ± 11.87%
[3]
  Amount of related substances (after 12 weeks): 4.42%

## CC(C)C[C@H](NC(=O)CNC(=O)[C@H](CC(C)C)NC(=O)[C@H](CCC(N)=O)NC(=O)CNC(=O)[C@@H]1C[C@@H](O)CN1)C(=O)O [YDE-042] (H-[Hyp]GQLGL-OH)
[1]; [6]
  Tear Volumes, Day 7: 6.30 ± 1.08 mm^3
  Tear Volumes, Day 14: 7.97 ± 1.48 mm^3
[2]; [7]
  Permeability of fluorescent dye: 20.72 ± 11.37%
[3]
  Amount of related substances (after 12 weeks): 3.98%

## CC(C)C[C@H](NC(=O)[C@H](C)NC(=O)[C@H](CC(=O)O)NC(=O)[C@H](CCC(N)=O)NC(=O)CNC(=O)[C@@H]1C[C@@H](O)CN1)C(=O)N[C@@H](C)C(=O)NCC(=O)N1CCC[C@H]1C(=O)N[C@@H](CCCCN)C(=O)O [YDE-018] (H-[Hyp]GQDALAGPK-OH)
[1]; [4]
  Tear Volumes, Day 7: 3.75 ± 1.54 mm^3
  Tear Volumes, Day 14: 4.99 ± 1.60 mm^3
[2]; [5]
  Permeability of fluorescent dye: 38.19 ± 10.96%
[3]
  Amount of related substances (after 12 weeks): 25.39%

## CC(C)C[C@H](NC(=O)CNC(=O)[C@H](Cc1c[nH]c2ccccc12)NC(=O)[C@H](CCC(N)=O)NC(=O)CNC(=O)[C@@H]1C[C@@H](O)CN1)C(=O)N[C@@H](C)C(=O)NCC(=O)N1CCC[C@H]1C(=O)N[C@@H](CCCCN)C(=O)O [YDE-014] (H-[Hyp]GQWGLAGPK-OH)
[1]; [4]
  Tear Volumes, Day 7: 3.81 ± 1.21 mm^3
  Tear Volumes, Day 14: 5.62 ± 1.85 mm^3
[2]; [5]
  Permeability of fluorescent dye: 31.15 ± 10.87%
[3]
  Amount of related substances (after 12 weeks): 6.72%

## CC(C)C[C@H](NC(=O)[C@H](Cc1ccc(O)cc1)NC(=O)[C@H](CC(=O)O)NC(=O)[C@H](CCC(N)=O)NC(=O)CNC(=O)[C@@H]1C[C@@H](O)CN1)C(=O)N[C@@H](C)C(=O)NCC(=O)N1CCC[C@H]1C(=O)N[C@@H](CCCCN)C(=O)O [YDE-020] (H-[Hyp]GQDYLAGPK-OH)
[1]; [4]
  Tear Volumes, Day 7: 3.41 ± 1.47 mm^3
  Tear Volumes, Day 14: 4.20 ± 1.35 mm^3
[1]; study of YDE-001 to YDE-028
  Change in amount of tear secretion as compared with the ELGE control group: did not show any significant changes
[2]; [5]
  Permeability of fluorescent dye: 47.84 ± 13.47%
[3]
  Amount of related substances (after 12 weeks): 21.54%

## CC(C)C[C@H](NC(=O)CNC(=O)[C@H](Cc1ccc(O)cc1)NC(=O)[C@H](CCC(N)=O)NC(=O)CNC(=O)[C@@H]1C[C@@H](O)CN1)C(=O)N[C@@H](C)C(=O)NCC(=O)N1CCC[C@H]1C(=O)N[C@@H](CCCCN)C(=O)O [YDE-013] (H-[Hyp]GQYGLAGPK-OH)
[1]; [4]
  Tear Volumes, Day 7: 5.27 ± 1.50 mm^3
  Tear Volumes, Day 14: 5.49 ± 1.92 mm^3
[2]; [5]
  Permeability of fluorescent dye: 32.24 ± 7.84%
[3]
  Amount of related substances (after 12 weeks): 5.92%

## CC(C)C[C@H](NC(=O)[C@@H]1CCCN1C(=O)CNC(=O)[C@H](C)NC(=O)[C@H](CC(C)C)NC(=O)CNC(=O)[C@H](CC(C)C)NC(=O)[C@H](CCC(N)=O)NC(=O)CNC(=O)[C@@H]1C[C@@H](O)CN1)C(=O)O [YDE-030] (H-[Hyp]GQLGLAGPL-OH)
[1]; [6]
  Tear Volumes, Day 7: 5.69 ± 1.79 mm^3
  Tear Volumes, Day 14: 6.65 ± 2.17 mm^3
[1]; study of YDE-029 to YDE-043
  Change in amount of tear secretion as compared with the ELGE control group: did not show any significant changes
[2]; [7]
  Permeability of fluorescent dye: 30.60 ± 13.61%
[3]
  Amount of related substances (after 12 weeks): 2.74%

## O=c1ccn([C@@H]2O[C@H](COP(=O)(O)OP(=O)(O)OP(=O)(O)OP(=O)(O)OC[C@H]3O[C@@H](n4ccc(=O)[nH]c4=O)[C@H](O)[C@@H]3O)[C@@H](O)[C@H]2O)c(=O)[nH]1 [DS, diquafosol sodium, reference compound]
[1]; study of YDE-001 to YDE-028
  Change in amount of tear secretion as compared with the ELGE control group: increased
[1]; study of YDE-029 to YDE-043
  Change in amount of tear secretion as compared with the ELGE control group: increased

Source: patent US11613558B2, “Peptides and pharmaceutical compositions for treating eye diseases” (Yuyu Pharma, Inc., priority 2018, dated 2023)
